Measurements reported in article PMC9034004, “Methionine epimerization in cyclic peptides” (RSC Advances, 2021).

What was measured:
MDA-MB-231 cells = experiment: CytoTox Green cytotoxicity assay, MDA-MB-231; assay type: cell-based, Human; details: 100 μM, 48 h, 8000 cells per well, DMSO 2% as negative control
Procedure: A Forma Series II 3110 Water-Jacketed CO2 Incubator (Thermo Fisher Scientific) containing T-75 cell culture flasks at 37 °C under a humidified atmosphere was used to culture human breast cancer cell lines MDA-MB-231 and Sk-Br-3. 10% fetal bovine serum (FBS) and 1% penicillin under 5% CO2 were used to supplement McCoy's 5A Modified Medium to culture Sk-Br-3 cell line, and 10% FBS and 1% penicillin under 0% CO2 were used to supplement Leibovitz's L-15 Medium to culture MDA-MB-231 cell line. Each cell line's culture medium was changed every 2–3 days.
MDA-MB-231 and Sk-Br-3 cells were plated in 96-well plates at 8000 cells per well (final culture volume – 300 μL) and allowed to grow overnight for attachment before being treated with LO. LO stock solutions were prepared in DMSO at various concentrations of 200 μM; 100 μM; 50 μM, 25 μM, 12.5 μM. CytoTox Green reagent was added to wells during treatments. DMSO treated cells (final concentration at 2%) were used as a negative control. Following the manufacturer's recommended protocols, LOs cytotoxicity was continuously monitored at 24 h intervals for 120 h and calculated using the equation.Cytotoxicity (%) = [OD (experiment) − OD (vehicle control)]/[OD (maximum cell death) − OD (vehicle control)] × 100%

[1] = Alkaline treatment of LOs (base-catalysed Met epimerization, HPLC); assay type: physicochemical; details: LOs 1, 4 and 7 mixture treated with KOH in 70% aqueous ethanol, HPLC at 214 nm and 280 nm
Procedure: HPLC data was collected at a wavelength range of 190–300 nm using Agilent 1200 series HPLC system equipped with an autosampler, quaternary pump, diode array detector and degasser. Chromatographic separations for Marfey's derivatives were conducted on 100 mm × 4.6 mm i.d., reversed-phase Chromolith® Performance RP-18e columns (Merck KGaA, Darmstadt, Germany). The mobile phase consisted of H2O and 0.05 M triethyl phosphate buffer at a flow rate of 2 mL min^−1 (85 : 15 for 3 min, 85 : 15 to 60 : 40 in 18 min, to 10 : 90 in 0.5 min, 10 : 90 for 1 min, to 85 : 15 in 0.5 min, to equilibration for 2 min) with column compartment at 30 °C. Chromolith® High Resolution RP-18e columns 50 mm × 4.6 mm i.d. (Merck KGaA, Darmstadt, Germany) equipped with in-line filters were used for LO analytical characterization. H2O and CH3CN linear HPLC gradient with a flow rate of 2 mL min^−1 (50 : 50 to 20 : 80 for 1.8 min, 20 : 80 to 10 : 90 in 0.1 min, to 50 : 50 in 0.1 min, to equilibration for 1 min), and a column compartment at 32 °C was used.
LO (1 g) was dissolved in 70% aqueous ethanol (2.5 mL) and KOH (0.25 g) was added. The mixture was sonicated for 30 min. A portion of the mixture (∼1 mL) was transferred to a glass vial and extracted with EtOAc (∼3 mL) then settled. The upper EtOAc phase was transferred by pipette to a clean tube and dried under airflow. […]

Row | new HPLC peak after KOH treatment (in words) [1] | Substance | % cytotoxicity (MDA-MB-231 cells)
1 | – | [1−9-NαC], DMet-linusorb B2 [LO 8] | ~100%
2 | – | [1−9-NαC]-linusorb B2 [LO 2] | ~40%
3 | no extra peak was observed | [1−9-NαC]-linusorb B3 [LO 1] | –
